Assay results taken from BindingDB's records for doi:10.1021/jm00083a001 (Ici Pharmaceuticals Group, 1992).

Test: Inhibition of prolyl 4-hydroxylase

Row | IC50 [nM] | SMILES
1 | 3000 | O=C(NS(=O)(=O)Cc1ccccc1)c1ccc(C(=O)O)nc1
2 | 4400 | O=C(NS(=O)(=O)c1cccc2ccccc12)c1ccc(C(=O)O)nc1
3 | 8500 | O=C(NS(=O)(=O)c1cc(Br)c(Br)s1)c1ccc(C(=O)O)nc1
4 | 2400 | O=C(NS(=O)(=O)c1ccc(Cl)s1)c1ccc(C(=O)O)nc1
5 | 1800 | O=C(NS(=O)(=O)c1cccc2cccnc12)c1ccc(C(=O)O)nc1
6 | 6600 | O=C(NS(=O)(=O)c1ccc(-c2cc(Cl)c3ccc(Cl)cc3n2)cc1)c1ccc(C(=O)O)nc1
7 | 1800 | CS(=O)(=O)NC(=O)c1ccc(C(=O)O)nc1
